This data set has as its system E. coli DH1 ΔacrAB. Particulars: for biofuel level that inhibited growth: added to pooled culture in M9 minimal medium, aimed at an inhibitory concentration that reduced growth by 25%; for outcome of efflux pump in competition: 2% geranyl acetate, serial dilution competition. As to the method:
In order to screen the efflux pump library against a variety of biofuels we devised a competition-based strategy to select for pumps that improved biofuel tolerance (FIG. 1A). Cells containing plasmids with individual pumps were grown separately and then pooled so that all individual strains were represented equally. This pooled culture was then grown both with and without biofuel, and maintained through serial dilutions every 10-14 hours over a total of 96 hours. At each dilution time point, plasmids from each culture were isolated and a custom microarray was used to quantify the amount of each efflux pump plasmid present in the culture (Methods).
Pooled culture glycerol stocks were used to inoculate M9 minimal medium with 30 μg/ml kanamycin and 10 μM IPTG. The culture was then divided into tubes to a final volume of 5 ml and biofuel was added directly to the tubes. All conditions were prepared in triplicate. Cultures were grown at 37° C. with orbital shaking at 200 rpm for all experiments.
Every 10-14 hours the cultures were diluted 1:100 into 5 ml of fresh M9 minimal medium with kanamycin, IPTG, and biofuel (where applicable). For the time-course assay, cultures were spun down at the completion of a growth cycle and plasmids were isolated. For end point competition assays, plasmid was isolated from the culture after 72 hours of serial dilution.
Custom microarrays (NimbleGen, Roche, USA) were used to measure the relative quantities of the efflux pumps present in the plasmid DNA isolated from the competition cultures. Arrays were designed so that they contained probes for all HAE1 annotated efflux pumps from all sequenced bacterial genomes. 12×135K arrays were used to allow for 12 experiments per slide.
Plasmid DNA was labeled and hybridized following the protocol for NimbleGen Comparative Genomic Hybridization Microarrays with minor modifications (Supporting Methods). Data were normalized using the standard settings for RMA analysis in the NimbleScan software. Probe values were averaged using a custom Matlab script (Mathworks, Inc.). […] For the positive hybridization control, all library plasmids were prepared individually and combined in vitro in equal proportions. For the negative hybridization control, a plasmid with the same vector backbone as those in the library, but no efflux pump, was isolated from DH1 ΔacrAB. Both hybridization controls were labeled and hybridized to the array using the methods described above.
This required the use of a co-solvent in order to accurately pipette small volumes. In both cases dimethylformamide (DMF) was used as the co-solvent. […] Other biofuels were added directly without the use of a co-solvent.

Experimental findings from US9428726B2, “Modified host cells with efflux pumps” (priority 2010, dated 2016) are described below.

“Also recorded” adds a separate entry of the source.

Regarding `CN(C)C=O` [DMF, dimethylformamide], where the note is “co-solvent amount present in the culture”, the “toxicity limit to E. coli” value is recorded as more than 0.2%.

Turning to `CCCCCC(=O)OCC=C(C)CCC=C(C)CCC=C(C)C` [farnesyl hexanoate], the “biofuel level that inhibited growth” value worked out at 2.5 % v/v.

On to `C=C(C)[C@H]1CC=C(C)CC1` [limonene], for which the “biofuel level that inhibited growth” value is on record as 0.025 % v/v.

On to `CC1=CCC2CC1C2(C)C` (stereo not drawn) [α-pinene], for which the “biofuel level that inhibited growth” value is 2 % v/v.

B1: YP_957870: Marinobacter aqueolei efflux pump, accession of inner membrane protein, SEQ ID NO:1 (protein, listed as Marinobacter aqueolei)
chain: MINFFISRPVFSWVLAIVAMLAGIMAIFVLPVQRYPSVAPPAVEIQADYPGASADTVSNTVVQVIEQEMTGLDNLLYMGSTADSSGHATVTLTFAAGTDPDIAQVQVQNKLKLAEPRLPEVVRQQGISVEKSSTSFLMVMAFVSTDGRLSKLDIADFISSELAEPIGRVTGIGSVQVFGSEYAMRIWLDPSALTNYGLTVADVSAAIEAQNAQVTAGQLGGLPAVEGQQLNATVTAQTLLTSTEEFRNILLKSMPDGSRVRLGDVARVELGGGAVQIDTFYDGEPAAGLGINLAPGANSLAVTEAVKARLQELEPYFPEGVEIRYPYQTAPFVEASIDAVVTTIIEAIALVVLVMLVFLQSWRATLIPAIAIPVVLLGTFAIMAAFGFSINMLTLFGLVLAIGLLVDDAIVVVENVERVMHEDGLSPMEATRKSMGQIASALIGIGVVLSAVFIPMAFFPGSTGAIYRQFSLSIAGAMVLSVLVALILSPMLCGRILKPTHERTLLQKLFGWFEAGLGRLTRGYVRLVGHTARHAWLYTLAFLGIVGLVAVLFVRLPGGFLPAEDQGFAVVQYQLPAGATQQRTIDTIQVIEDYFMDQDEVQGLFTIAGFSFAGRAQNAGLAFVNLKPWSERDPETQSADAIIQRANRALAGLVRDGRAFAFNLPPIPELGQALGFELRLQDRGAIGHEALMAAQGQLLQLAAESPVLTSVRPNGLADNPRYKVDIDYEKAQALGIEPSEISRLLSVTWGSQYVNDFLHEGRVKRVYVQGDAPFRMLPEDFEAWYLRAANGEMTPLSEVTNGRWEYGSPRLERFNGVPSRQIQGEPAPGYSTGEAMAEVERLIAQLPDGVAGAWSGLSYQERQAGAQASLLYALSALVVFLALAALYESWTIPISVMLAVPLGVLGAVLAAMVRGLPNDVFFQVGILTTVGVTARNAILLVEFARSLEDQGMKLIEATKEAARVRLRPILMTSVAFGMGVLPLAFASGAGATTRIAIGTAVLGGMISATILATFFIPLFYVVVRRITDFLSGSRDQDDSAAAAPGRANGGVADDR
On to B1, for which the “outcome of efflux pump in competition” value was “increase survival”.

B2: NP_745594: Pseudomonas putida KT2440 efflux pump, accession of inner membrane protein, SEQ ID NO:3 (protein, listed as Pseudomonas putida)
chain: MPQFFIDRPVFAWVVALFILLAGALAIPQLPVAQYPNVAPPQVEIYAVYPGASAATMDESVVSLIEQELNGADNLLYFESQSSLGSATITATFAPGTHPDLAQVDVQNRLKVVESRLPRPVTQQGLQVEKVSTGFLLLATLTSEDGKLDETALSDILARNVMDEIRRLKGVGKAQLYGSERAMRIWIDPRKLIGFNLTPNDVAEAIAAQNAQVAPGSIGDLPSRSTQEITANVVVKGQLSSPDEFAAIVLRANPDGSTVTIGDVARVEIGAQEYQYGTRLNGKPATAFSVQLSPGANAMETATLVRAKMQDLARYFPEGVKYDIPYDTSPFVKVSIEQVINTLFEAMLLVFAVMFLFLQNLRYTLIPTLVVPVALMGTFAVMLAMGFSVNVLTLFGMVLAIGILVDDAIVVVENVERIMAEEGLPPKQATRKAMGQISGAIVGITLVLVAVFLPMAFMQGSVGVIYQQFSLSMAVSILFSAFLALSLTPALCATLLKPVAKGEHHERKGFFGWFNRRFESMSNGYQRWVVQALKRSGRYLLVYAVLLAVLGYGFSQLPTAFLPTEDQGYTITDIQLPPGASRMRTEQVAAQIEAHNAEEPGVGNTTLILGFSFSGSGQNAALAFTTLKDWSERGADDSAQSIADRATMAFTQLKDAIAYSVLPPPIDGLGESTGFEFRLQDRGGMGHAELMAARDQLLESASKSKVLTNVREASLAESPQVQLEIDRRQANALGVSFADIGTVLDVAVGSSYVNDFPNQGRMQRVVVQAEGDQRSQVEDLLNIHVRNDSGKMVPLGAFVQARWVSGPVQLTRYNGYPAVSISGEPAAGYSSGEAMAEVERLVAQLPAGTGLEWTGLSLQERLSGSQAPLLMALSLLVVFLCLAALYESWSIPTAVLLVVPLGVLGAVLAVTLRGMPNDVFFKVGLITLIGLSAKNAILIIEFAKHLVDQGVDAADAAVQAARLRLRPIVMTSLAFILGVVPLAIASGASSASQQAIGTGVIGGMLSATLAVVFVPVFFVVVMRLSGRRQAHDSDGQPVPRES
Regarding B2, the “outcome of efflux pump in competition” value is “survived the competition”.

B3: YP_692684: Alcanivorax borkumensis SK2 efflux pump, accession of inner membrane protein, SEQ ID NO:2 (protein, listed as Alcanivorax borkumensis)
chain: MARFFIDRPIFAWVIAIIMMMAGALAIYTLPIEQYPTVAPPQVSIAGNYPGASAKTVEDSVTQVIEQQMNGIDNLLYMSSSSDSFGNAAVNLTFAPGTDPDIAQVQVQNKLQLATPLLPQEVQQQGMQVTKSSDSFLMVAGFTSEDGSLSRADLADYVASNVQDPVSRVPGVGQIQLFGSPYAMRVWLDPNKLNKFDLTPQDVTQTIEVQNNQVASGQLGGAPAVEGQQLNATIIAQTRLEDVDQFENILLKVNPDGSRVFLKDVARVELAAQNYDVQGRYNGQPAAGLAISLATGANALDTAEALRARLAELQPYFPDKMEMVFPYDTTPFVSISIEEVVHTLFEAIILVFLVMYLFLQNFRATLIPTLAVPVVLLGTFAVLAAFGFSINTLTMFGMVLAIGLLVDDAIVVVENVERVMHEEGLPPKEATRKSMGQITGALVGIALVLSAVFVPMAFFPGSTGAIYRQFSITIVSAMVLSVLVALILTPALCATMLKAKDSEHQTDHGFFGWFNRTFDKSSRRYQGSVEKILGRRGRYLFIYVVIVGVLGFSFMRLPSSFLPEEDQGILFTLVTLPAGSTQEQTVKVLEKMEDYYLNEEASAVDGLFTVAGFSFTGRGQNAGMAFVNLKDWSERDLSVDGADNVVARAMGYFSTIREAMMFALNPPSIPELGNASGFDFQLLDQSGQGHEALIQARNQMLGMAAQDPRLAGVRPNGLEDSPQYQIDIDQQKAKALGLSISDINSTLQIAWGSSYVNNFVDRGRVKRVYVQADAPYRMLPENVNDWFVRNNQGKMVPFSTFATGHWTYGSPKLERYNGVSSVNIQGNAAPGYSTGDAMDAMEELSAKLPAGFGFEWTGMSYQERQSGDQAPALYVISLLVVFLCLAALYESWSIPFAVMLVVPLGILGAVLAATFRDLNNDVFFQVGLLTTIGLSAKNAILIAEFALELEQKGEHLLKATLEAVRMRLRPILMTSLAFMLGVTPLMISTGAGAGARNAIGTGVFGGMLTATVLAIFFIPLFYVAVRKLSGVPLDGKKKGKE
For B3, the “outcome of efflux pump in competition” value was “increase survival; also recorded: best pump”.
